# Data from patent publication US4585773A, “Isoindolinyl-alkyl-piperazines” (Bristol-Myers Company, priority 1984, dated 1986).
# Like-named read-outs stand apart in the source and are kept apart here.
# How the values were obtained:
# [1] = system: DOCA-salt Hypertensive Rat; assay: antihypertensive activity, DOCA-salt Hypertensive Rat (Table II); format: in vivo; details: for ΔBP 4 hours / ΔHR 4 hours: DOCA
# Method: DOCA-salt Hypertensive Rat
# Male rats initially weighing 80-100 g, are made hypertensive by surgically implanting two 50 mg pellets of deoxycorticosterone acetate (DOCA) under the skin of the abdomen of each rat and providing 1% saline ad libitum. After three weeks, the 1% saline is replaced with distilled water. One week later, animals are anesthetized with methoxyflurane and a catheter advanced into the aorta via the left common corotid artery to record mean arterial blood pressure (MABP) and heart rate. The heparin-filled catheter is passed beneath the skin and exteriorized behind the head. Two days later, MABP and heart rate are determined before and four hours after oral administration of vehicle (0.25% Methocel in 0.9% saline) or test compound suspended in vehicle at a dose volume equivalent to 5 ml/kg.
# Testing was carried out on the compounds of Examples I-XII for antihypertensive activity. In the case of all the compounds testing was carried out on the Spontaneously Hypertensive rat as described hereinbefore. In the case of the compounds of Examples I-IV testing was also carried out on the DOCA-salt Hypertensive Rat. The compound of Example I was tested as its monochloride 2-propanolate hydrate, i.e. as C22 H27 ClN4 O4 S.HCl.0.2(CH3)2 CHOH.0.15H2 O in Tests 1-5; and as the 3/4 mole hydrochloride, i.e. C22 H27 ClN4 O4 S: 3/4 HCl in Tests 3a, 4a, 5a-5d. Test results are set forth in Table II below wherein SHR stands for Spontaneously Hypertensive rat, DOCA stands for DOCA-salt Hypertensive Rat, ΔBP stands for the change in systolic blood pressure in mm Hg, ΔHR stands for the change in mean heart rate in beats per minute and the times set forth are the times after dosing. A peak change in ΔBP of more than 20 is considered as indicating activity.
# [2] = conscious rat diuretic screen of Lipschitz (Table I); format: in vivo, rat (female Sprague Dawley; male Okamoto-Aoki); details: for response vs control in vivo at 0.3 mg/kg / response vs control in vivo at 3 mg/kg / response vs control in vivo at 30 mg/kg / response vs control in vivo at 10 mg/kg: Rattus norvegicus, po
# How it was run: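 Conscious rats (female Sprague Dawley or male Okamoto-Aoki) received test compound orally in dose-response fashion; urine volume, Na+ and K+ excretion were measured. Values are ratios of amounts excreted by treated versus control rats.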
# α1 = assay: in vitro α1 binding, [3H]WB-4101 (Table IV); details: for IC50: [3H]WB-4101, brain tissue, 50 mM Hepes.KOH, pH 7.4, read-out: α1 Binding IC50
# Method: (§1) In this Example the compounds of Examples I-XI were tested in vitro for α1 and α2 binding. The compound of Example I was tested as its monochloride 2-propanolate hydrate, i.e. as C22 […] CLN4 O4 S .HCl.0.2(CH3)2 CHOH 0.15H2 O. In the testing specific brain tissues were prepared as sources of binding sites. Aliquots of the washed members are incubated with a low concentration of […]. After incubation at suitable temperature, the reaction mixture is treated to separate the membrane-bound radioligand Radioactivity is measured. Linear regression analysis of the probit value for the percent of binding occurring in the presence of varying concentrations of the compound of interest plotted against the concentration of the compound yields concentrations which inhibit 50% specific binding, the IC50. The assay buffer is 50 mM Hepes.KOH, pH 7.4. The ligand is [^3 H]WB-4101 from New England Nuclear for α1 and [^3 H]Clonidine from New England Nuclear for α2. The results are considered against phentolamine methanesulfonate (Reference) which is considered a good α-binder.
# α2 = assay: in vitro α2 binding, [3H]Clonidine (Table IV); details: for IC50: [3H]Clonidine, brain tissue, 50 mM Hepes.KOH, pH 7.4, read-out: α2 Binding IC50
# Method: as §1
# [3] = system: α blocking activity (phenylephrine); assay: in vivo α blocking activity, phenylephrine (PE) as α-agonist (Table III); parameters: species or system rat; ED50: unit not given beside the values; details: for Average Dose Shift: ED50 after/before drug, PE; for in vivo α blocking activity (in words): conclusion from Table III; for ED50: iv
# How it was run: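 Rats received phenylephrine or norepinephrine as α-agonist before and after test drug, given intravenously except oral in Tests 2a, 3, 3a and 26-29. ED50 is the average interpolated agonist dose raising mean arterial pressure by 50 mm Hg; dose shift is the post-drug/pre-drug ED50 ratio.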
# [4] = 0.3 mg/kg oral, as 3/4 mole hydrochloride
# [5] = 3.0 mg/kg oral, as 3/4 mole hydrochloride
# [6] = 30 mg/kg oral, as 3/4 mole hydrochloride
# [7] = 100 mg/kg oral, as 3/4 mole hydrochloride
# [8] = 3 mg/kg oral, male Okamoto-Aoki rats
# [9] = 30 mg/kg oral, female Sprague Dawley rats
# [10] = 30 mg/kg oral, male Okamoto-Aoki rats
# [11] = 3 mg/kg oral, male Okamoto-Aoki rats, read-out: K+ Ratio
# [12] = 3 mg/kg oral, male Okamoto-Aoki rats, read-out: Na+ Ratio
# [13] = 3 mg/kg oral, male Okamoto-Aoki rats, read-out: Volume Ratio
# [14] = 30 mg/kg oral, female Sprague Dawley rats, read-out: K+ Ratio
# [15] = 30 mg/kg oral, female Sprague Dawley rats, read-out: Na+ Ratio
# [16] = 30 mg/kg oral, female Sprague Dawley rats, read-out: Volume Ratio
# [17] = 30 mg/kg oral, male Okamoto-Aoki rats, read-out: K+ Ratio
# [18] = 30 mg/kg oral, male Okamoto-Aoki rats, read-out: Na+ Ratio
# [19] = 30 mg/kg oral, male Okamoto-Aoki rats, read-out: Volume Ratio
smiles,measurement,setting,value
"COc1ccccc1N1CCN(CCCN2Cc3cc(Cl)c(S(N)(=O)=O)cc3C2=O)CC1 [Example I, 6-chloro-2,3-dihydro-2-[3-[4-(2-methoxyphenyl)-1-piperazinyl]propyl]-3-oxo-1H-isoindole-5-sulfonamide]",antihypertensive activity (in words),[1]; DOCA-hypertensive rat,demonstrates activity in the DOCA-hypertensive rat
same,ΔBP 4 hours,[1]; [4],-14 ± 5 mm Hg
same,ΔHR 4 hours,[1]; [4],-8 ± 20 beats per minute
same,ΔBP 4 hours,[1]; [5],-15 ± 6 mm Hg
same,ΔHR 4 hours,[1]; [5],-6 ± 24 beats per minute
same,ΔBP 4 hours,[1]; 30 mg/kg oral,-49 ± 9 mm Hg
same,ΔHR 4 hours,[1]; 30 mg/kg oral,59 ± 28 beats per minute
same,ΔBP 4 hours,[1]; [6],-53 ± 9 mm Hg
same,ΔHR 4 hours,[1]; [6],53 ± 26 beats per minute
same,ΔBP 4 hours,[1]; [7],-75 ± 3 mm Hg
same,ΔHR 4 hours,[1]; [7],23 ± 32 beats per minute
same,Urinary Na/K (Test Compound),"[2]; 0.3 mg/kg oral, male Okamoto-Aoki rats",0.81
same,Urinary Na/K (Test Compound),"[2]; 3 mg/kg oral, female Sprague Dawley rats",2.55
same,Urinary Na/K (Test Compound),[2]; [8],1.14
same,Urinary Na/K (Test Compound),[2]; [9],2.98
same,Urinary Na/K (Test Compound),[2]; [10],1.56
same,natriuretic response (in words),[2]; 3.0 to 30 mg/kg body weight,dose-dependent natriuretic response
same,response vs control in vivo at 0.3 mg/kg,"[2]; 0.3 mg/kg oral, male Okamoto-Aoki rats, read-out: K+ Ratio",78%
same,response vs control in vivo at 0.3 mg/kg,"[2]; 0.3 mg/kg oral, male Okamoto-Aoki rats, read-out: Na+ Ratio",96%
same,response vs control in vivo at 0.3 mg/kg,"[2]; 0.3 mg/kg oral, male Okamoto-Aoki rats, read-out: Volume Ratio",82%
same,response vs control in vivo at 3 mg/kg,"[2]; 3 mg/kg oral, female Sprague Dawley rats, read-out: K+ Ratio",100%
same,response vs control in vivo at 3 mg/kg,"[2]; 3 mg/kg oral, female Sprague Dawley rats, read-out: Na+ Ratio",108%
same,response vs control in vivo at 3 mg/kg,"[2]; 3 mg/kg oral, female Sprague Dawley rats, read-out: Volume Ratio",93%
same,response vs control in vivo at 3 mg/kg,[2]; [11],103%
same,response vs control in vivo at 3 mg/kg,[2]; [12],168%
same,response vs control in vivo at 3 mg/kg,[2]; [13],204%
same,response vs control in vivo at 30 mg/kg,[2]; [14],106%
same,response vs control in vivo at 30 mg/kg,[2]; [15],136%
same,response vs control in vivo at 30 mg/kg,[2]; [16],98%
same,response vs control in vivo at 30 mg/kg,[2]; [17],117%
same,response vs control in vivo at 30 mg/kg,[2]; [18],261%
same,response vs control in vivo at 30 mg/kg,[2]; [19],251%
same,IC50,α1,1.48 nM
same,α1 binding activity (in words),α1; listed as MJ 15037,demonstrates activity in binding both α1 and α2 sites
same,α2 binding activity (in words),α2,α2 binding activity
same,IC50,α2,555 nM
same,α2 binding activity (in words),α2; listed as MJ 15037,demonstrates activity in binding both α1 and α2 sites
same,Average Dose Shift,"[3]; dose 30, oral",33 ± 11
same,in vivo α blocking activity (in words),[3],active as in vivo α blockers
same,ED50,[3],161.8
"COc1ccccc1N1CCN(CCN2Cc3cc(Cl)c(S(N)(=O)=O)cc3C2=O)CC1 [Example III, 6-Chloro-2,3-dihydro-2-[2-[4-(2-methoxyphenyl)-1-piperazinyl]ethyl]-3-oxo-1H-isoindole-5-sulfonamide]",ΔBP 4 hours,[1]; 30 mg/kg oral,-62 ± 13 mm Hg
same,ΔHR 4 hours,[1]; 30 mg/kg oral,63 ± 32 beats per minute
same,Urinary Na/K (Test Compound),[2]; [8],6.1
same,Urinary Na/K (Test Compound),"[2]; 10 mg/kg oral, male Okamoto-Aoki rats",6.7
same,Urinary Na/K (Test Compound),[2]; [9],3.44
same,Urinary Na/K (Test Compound),[2]; [10],6.7
same,response vs control in vivo at 3 mg/kg,[2]; [11],121%
same,response vs control in vivo at 3 mg/kg,[2]; [12],113%
same,response vs control in vivo at 3 mg/kg,[2]; [13],122%
same,response vs control in vivo at 10 mg/kg,"[2]; 10 mg/kg oral, male Okamoto-Aoki rats, read-out: K+ Ratio",115%
same,response vs control in vivo at 10 mg/kg,"[2]; 10 mg/kg oral, male Okamoto-Aoki rats, read-out: Na+ Ratio",116%
same,response vs control in vivo at 10 mg/kg,"[2]; 10 mg/kg oral, male Okamoto-Aoki rats, read-out: Volume Ratio",126%
same,response vs control in vivo at 30 mg/kg,[2]; [14],116%
same,response vs control in vivo at 30 mg/kg,[2]; [15],134%
same,response vs control in vivo at 30 mg/kg,[2]; [16],116%
same,response vs control in vivo at 30 mg/kg,[2]; [17],130%
same,response vs control in vivo at 30 mg/kg,[2]; [18],135%
same,response vs control in vivo at 30 mg/kg,[2]; [19],163%
same,IC50,α1,23.4 nM
same,α2 binding activity (in words),α2,α2 binding activity
same,IC50,α2,806 nM
same,Average Dose Shift,"[3]; dose 10, intravenous",dose too high
same,in vivo α blocking activity (in words),[3],active as in vivo α blockers
same,ED50,[3],41.0
